Consider four compounds from patent US20090163442A1, “TREATMENT OF CANCER WITH 2-DEOXYGALACTOSE” (priority 2007, published 2009).

Values joined by “and” are separate entries in the source; they are usually repeats but may differ in a detail not shown here. Equal values may be shown once.

One data set has as its system CD 1 mice. The experiment in a line: Liver toxicity study of 2-Fluoro-2-deoxygalactose, serum chemistry and clinical observations. Particulars: for Alt (alanine aminotransferase) / Ast (aspartate aminotransferase) / Tbili (total bilirubin): about 0.2 ml, male CD-1 mice, Day 2, individual animals. It is filed as in vivo. The protocol:
The objective of this study was to evaluate the liver toxicity of 2-Fluoro-2-deoxygalactose when administered via intraperitoneal or intravenous injection to CD 1 mice. The study was initiated on Jan. 11, 2007, and consisted of three groups with three (3) male mice per group. On Day 1, each mouse GROUP was administered either about 0.2 ml of 10% 2 Fluoro 2 Deoxygalactose, intraperitoneally, about 0.2 ml of 10% 2 Fluoro 2 Deoxygalactose, intravenously, or about 0.2 ml of sterile 0.9% sodium chloride for injection, USP, intravenously. Criteria for evaluation included clinical observations and limited serum chemistry parameters (alanine aminotransferase [ALT], aspartate aminotransferase [AST], and total bilirubin). On Day 2, all animals were euthanized, blood was collected, and livers were collected and stored for potential histopathological evaluation.
Clinical observations were performed at least once daily.

Data set [1] concerns tumor cell lines and types. Particulars: Laszlo et al. 1958; cited from earlier work.
A further data set concerns tumor. Particulars: cited from earlier work; for survival time / tumor growth: animal studies, Laszlo et al. 1960.
The subject of a further data set is normal liver tissue. The experiment in a line: Uptake of 2-Fluoro-2-deoxygalactose by normal liver tissue.
In data set [2] the test system is hepatocellular carcinoma cell lines. The data set is described as follows: Sulforhodamine B (SRB) growth inhibition assay. To be noted: continuous treatment 72 h. Type of data set: cell-based, Human. On the procedure:
The cells are cultured at 37 degrees C. in a humidified atmosphere containing 5% CO2. For passaging, cells grown in 75 cm2 flasks (6070% confluency) are washed with PBS and dissolved from the flasks with trypsin (Gibco BRL) before being plated. Ten thousand cells are plated into each well of a 96-well microtiter plate in 100 ul of medium. The cells are then incubated for 24 h at 37 degrees C. in a humidified atmosphere containing 5% CO2 prior to exposure to the 2-DG analog or other anti-cancer agent. Cultures are treated with a range of concentrations of 2-DGaI or a 2-DGaI analog solubilized in cell culture medium, diluted 100× to the desired concentration, continuously for 72 h. Docetaxel (Taxotere™, Aventis Pharmaceuticals, Inc.) solubilized in 100% DMSO and diluted 1000× to the desired concentration, is used as a positive control. The sulforhodamine B (SRB) assay, a dye-based method for determining cell number by virtue of SRB binding to basic amino acids of cellular macromolecules, is employed to assess the growth inhibitory activity of 2-DGal or a 2-DGal analog.

Data set [3] deals with liver tumor serially passaged in nude mice. The data set is described as follows: Tumor growth delay study in a mouse xenograft model. It is filed as in vivo. Particulars: in combination with cisplatin (1 mg/kg i.p. days 1 to 5); 750 mg/kg orally twice daily; versus cisplatin alone. An excerpt: The efficacy of 2-DGaI or a 2-DGaI analog in combination with cisplatin can be compared with cisplatin alone in a tumor growth delay study in a mouse xenograft model. Small pieces of tumor, such as a liver tumor serially passaged in nude mice, are implanted subcutaneously in nude mice, and the tumors allowed to grow to 25 mm^2. Mice are then randomized to receive no treatment, treatment with 2-DGal or a 2-DGal analog alone, treatment with cisplatin alone, or treatment with both 2-DGal or a 2-DGaI analog and cisplatin. Cisplatin is dosed i.p. at 1 mg/kg on days 1 to 5.2-DGaI or a 2-DGaI analog is dosed orally at 750 mg/kg, twice daily, for the duration of the experiment. Each mouse is sacrificed when its tumor volume reaches 1000 mg.

For `O=C[C@H](F)[C@@H](O)[C@@H](O)[C@H](O)CO` [2-Fluoro-2-deoxygalactose, 2-fluoro-2-deoxy-D-galactose], the concentration of transaminases entry with CD 1 mice (CD1 mice, intraperitoneally) is recorded as “increases in concentration of transaminases”. Moreover, the “Alt (alanine aminotransferase)” value is 109 U/L and 73 U/L and 72 U/L with CD 1 mice (Group 2, 10% 2-Fluoro-2-deoxygalactose intraperitoneally); 45 U/L and 124 U/L and 30 U/L in the data set with CD 1 mice (Group 3, 10% 2-Fluoro-2-deoxygalactose intravenously). Also, the “Ast (aspartate aminotransferase)” value in the data set on CD 1 mice (Group 2, 10% intraperitoneally) was 234 U/L and 114 U/L and 118 U/L; in the data set with CD 1 mice (Group 3, 10% intravenously), 112 U/L and 116 U/L and 52 U/L. For the same compound, the “Tbili (total bilirubin)” value is 0.2 mg/dL (2×) and 0.3 mg/dL in the data set on CD 1 mice (Group 2, 10% intraperitoneally); 0.2 mg/dL (2×) and 0.1 mg/dL with CD 1 mice (Group 3, 10% intravenously). For the same compound, in the data set with CD 1 mice (intraperitoneal administered group), the gross pathology finding result is listed as “gross pathology finding of a single animal”. Moreover, in the data set on CD 1 mice (intraperitoneal group, versus the two expected controls of Group 1), the “rise in ALT and AST over normal animals” value is recorded as 2-3 ×. Moreover, in the data set on CD 1 mice (intraperitoneal or intravenous single injection, CD 1 mice), the unscheduled deaths entry is recorded as “no unscheduled deaths”. Further, the “test article related clinical findings” value in the data set on CD 1 mice (intraperitoneal or intravenous single injection, clinical observations at least once daily) is on record as “no adverse test article related clinical findings”. In the data set on CD 1 mice (intravenous group, at 24 hours), the “elevated enzymes (ALT, AST)” value is “one animal with elevated enzymes at 24 hours and two that has returned to normal”.
For `O=CC[C@@H](O)[C@H](O)[C@H](O)CO` [2-DG, 2-Deoxy-D-glucose, reference compound], the inhibition of glycolysis entry in data set [1] is listed as “inhibit glycolysis”. For the same compound, the “tumor growth in animal models” value with tumor (Sokoloff 1955, Ball 1957) was “retard tumor growth”. For the same compound, in the data set with tumor, the survival time result is on record as “modest prolongation of survival time” and the tumor growth result was “inhibition of tumor growth”.
With `O=C[C@H](O)[C@@H](O)[C@@H](O)[C@H](O)CO` [galactose], in the data set on normal liver tissue, the “inhibition of uptake of 2-Fluoro-2-deoxygalactose” value is given as “markedly inhibits the uptake”.
Consider `O=CC[C@@H](O)[C@@H](O)[C@H](O)CO` [2-DGal, 2-Deoxy-D-galactose], for which, in data set [1], the inhibition of glycolysis entry is listed as “inhibit glycolysis”. In the data set on tumor, the survival time entry is given as “modest prolongation of survival time” and the tumor growth entry is on record as “inhibition of tumor growth”. In the data set on tumor (model systems of Laszlo et al. 1960), the “efficacy relative to 2-DG” value was “less efficacious”. The “growth of hepatocellular carcinoma cell lines” value in data set [2] is reported as “inhibits the growth”. In addition, the tumor growth delay result in data set [3] was “delays tumor growth significantly more than treatment with cisplatin alone”.
